Results: BindingDB's records for doi:10.1046/j.1471-4159.1996.67010058.x (Cns Research, 1996)
Where “and” joins values, the source holds several entries; their conditions need not be identical. Equal entries are not always repeated.

Key:
[1] = molecular target: Metabotropic glutamate receptor 1 (Homo sapiens, UniProt Q13255)
[2] = molecular target: Metabotropic glutamate receptor 2 (Homo sapiens, UniProt Q14416)
[3] = molecular target: Metabotropic glutamate receptor 3 (Homo sapiens, UniProt Q14832)
Chain of Metabotropic glutamate receptor 3 (Q14832 whole entry): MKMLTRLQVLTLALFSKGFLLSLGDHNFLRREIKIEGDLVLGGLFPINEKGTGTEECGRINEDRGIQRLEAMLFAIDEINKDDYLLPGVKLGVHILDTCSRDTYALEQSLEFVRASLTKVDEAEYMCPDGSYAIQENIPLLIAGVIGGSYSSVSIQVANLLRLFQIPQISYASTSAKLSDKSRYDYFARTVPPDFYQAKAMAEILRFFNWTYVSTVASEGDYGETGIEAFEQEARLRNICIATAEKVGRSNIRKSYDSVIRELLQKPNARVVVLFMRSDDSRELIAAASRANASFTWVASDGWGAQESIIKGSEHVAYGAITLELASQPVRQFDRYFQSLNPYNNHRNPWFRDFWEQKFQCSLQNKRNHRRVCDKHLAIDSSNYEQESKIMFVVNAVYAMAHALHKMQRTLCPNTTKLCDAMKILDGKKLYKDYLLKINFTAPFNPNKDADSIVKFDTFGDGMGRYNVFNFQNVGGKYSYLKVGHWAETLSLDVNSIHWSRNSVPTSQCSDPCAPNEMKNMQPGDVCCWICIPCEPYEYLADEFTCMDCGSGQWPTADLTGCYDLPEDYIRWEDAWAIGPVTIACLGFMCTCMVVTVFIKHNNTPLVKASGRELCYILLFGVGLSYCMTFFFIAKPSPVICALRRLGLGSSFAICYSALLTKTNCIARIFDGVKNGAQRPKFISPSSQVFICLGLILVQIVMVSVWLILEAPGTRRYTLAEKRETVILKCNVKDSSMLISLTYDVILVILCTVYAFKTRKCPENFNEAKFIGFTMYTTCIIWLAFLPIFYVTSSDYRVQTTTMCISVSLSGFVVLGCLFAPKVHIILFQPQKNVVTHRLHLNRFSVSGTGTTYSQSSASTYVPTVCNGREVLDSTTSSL

Chain of Metabotropic glutamate receptor 2 (Q14416 whole entry): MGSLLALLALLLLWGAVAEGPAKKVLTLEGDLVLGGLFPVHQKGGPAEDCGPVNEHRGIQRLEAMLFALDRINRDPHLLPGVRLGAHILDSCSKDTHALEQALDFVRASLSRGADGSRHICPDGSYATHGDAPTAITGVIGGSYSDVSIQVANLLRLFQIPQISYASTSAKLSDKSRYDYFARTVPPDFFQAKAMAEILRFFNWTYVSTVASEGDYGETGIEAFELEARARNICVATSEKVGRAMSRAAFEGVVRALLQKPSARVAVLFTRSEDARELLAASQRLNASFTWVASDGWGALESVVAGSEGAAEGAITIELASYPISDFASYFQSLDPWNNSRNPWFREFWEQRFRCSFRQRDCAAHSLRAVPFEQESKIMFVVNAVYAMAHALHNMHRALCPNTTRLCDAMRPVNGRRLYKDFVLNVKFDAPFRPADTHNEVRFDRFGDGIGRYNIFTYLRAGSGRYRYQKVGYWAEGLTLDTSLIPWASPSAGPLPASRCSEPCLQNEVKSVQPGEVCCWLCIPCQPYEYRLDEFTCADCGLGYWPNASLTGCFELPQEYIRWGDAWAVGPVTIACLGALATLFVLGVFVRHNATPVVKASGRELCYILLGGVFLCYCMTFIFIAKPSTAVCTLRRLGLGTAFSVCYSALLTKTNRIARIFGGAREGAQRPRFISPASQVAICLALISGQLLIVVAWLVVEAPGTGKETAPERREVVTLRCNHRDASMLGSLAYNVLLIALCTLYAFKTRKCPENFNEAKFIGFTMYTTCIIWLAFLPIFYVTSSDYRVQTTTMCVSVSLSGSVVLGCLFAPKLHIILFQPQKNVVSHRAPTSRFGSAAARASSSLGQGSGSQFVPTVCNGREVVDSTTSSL
Chain of Metabotropic glutamate receptor 1 (Q13255 whole entry): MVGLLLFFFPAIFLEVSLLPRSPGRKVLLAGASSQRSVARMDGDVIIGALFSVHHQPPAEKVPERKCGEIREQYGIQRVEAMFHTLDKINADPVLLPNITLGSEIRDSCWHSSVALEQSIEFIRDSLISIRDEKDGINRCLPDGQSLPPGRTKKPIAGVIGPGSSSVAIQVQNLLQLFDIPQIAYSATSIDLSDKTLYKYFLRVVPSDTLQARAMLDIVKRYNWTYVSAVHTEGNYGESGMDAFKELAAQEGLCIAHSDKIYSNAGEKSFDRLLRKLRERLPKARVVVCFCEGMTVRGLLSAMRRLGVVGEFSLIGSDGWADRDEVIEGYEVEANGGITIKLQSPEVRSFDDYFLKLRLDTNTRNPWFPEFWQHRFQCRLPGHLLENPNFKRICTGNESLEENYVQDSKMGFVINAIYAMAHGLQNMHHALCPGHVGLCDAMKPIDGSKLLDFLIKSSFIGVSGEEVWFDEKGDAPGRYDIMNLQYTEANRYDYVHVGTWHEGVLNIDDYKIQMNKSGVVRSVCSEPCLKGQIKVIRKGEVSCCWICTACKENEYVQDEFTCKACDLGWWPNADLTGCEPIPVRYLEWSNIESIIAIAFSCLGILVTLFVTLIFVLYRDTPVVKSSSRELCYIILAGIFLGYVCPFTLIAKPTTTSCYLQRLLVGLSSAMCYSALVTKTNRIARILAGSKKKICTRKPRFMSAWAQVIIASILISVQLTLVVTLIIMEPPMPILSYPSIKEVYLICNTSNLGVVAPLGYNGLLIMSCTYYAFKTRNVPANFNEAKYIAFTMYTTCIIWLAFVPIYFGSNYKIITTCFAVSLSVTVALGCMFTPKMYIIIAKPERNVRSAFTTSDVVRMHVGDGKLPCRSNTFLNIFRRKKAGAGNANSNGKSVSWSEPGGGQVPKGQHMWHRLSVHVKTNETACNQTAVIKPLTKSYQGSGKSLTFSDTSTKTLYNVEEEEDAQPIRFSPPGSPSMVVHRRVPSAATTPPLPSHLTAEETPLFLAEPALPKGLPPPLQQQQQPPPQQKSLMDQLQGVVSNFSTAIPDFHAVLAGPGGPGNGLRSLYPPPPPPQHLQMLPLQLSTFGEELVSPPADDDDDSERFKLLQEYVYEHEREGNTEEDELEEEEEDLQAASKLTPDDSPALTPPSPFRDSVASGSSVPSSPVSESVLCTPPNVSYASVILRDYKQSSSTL

SMILES | Ki [1] [µM] | Ki [2] [µM] | Ki [3]
N[C@H](C(=O)O)[C@H]1C[C@H]1C(=O)O [L-CCG-IV] | 3.47 | > 10 | 
N[C@@H](Cn1oc(=O)[nH]c1=O)C(=O)O [2-amino-3-(3,5-dioxo[1,2,4]oxadiazolidin-2-yl)propionic acid] |  | 0.42 | 
N[C@@]1(C(=O)O)CC[C@H](C(=O)O)C1 [1S, 3R-ACPD] |  | > 10 | > 10 µM and 5.4 µM
